Target: T1, NS3 protease (dengue virus type 3, UniProt A0A0B5JFF1)
T1 sequence (A0A0B5JFF1 whole entry): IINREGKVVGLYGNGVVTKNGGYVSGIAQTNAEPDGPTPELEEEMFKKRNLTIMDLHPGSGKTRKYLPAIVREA
Assay: Functional biochemical assay to identify treatments for viral infectious disease that targets Dengue virus type 3 NS2B-NS3 protease. Utilizing a direct enzyme activity measurement method, reading the fluorescence intensity is used to characterize the relative potency of inhibitors as IC50.
Parameters: species or system Philippines/H87/1956

| Compound | IC50 [µM] |
| --- | --- |
| O=C(Nc1cc(Cl)cc(-c2ccc3[nH]c(C(=O)O)cc3c2)c1)OCc1ccccc1 | 5 |
| O=C(Nc1ccc2c(c1)CNC2)c1cc(F)cc2[nH]c(-c3ccccc3)nc12 | 3.57 |
| Cc1ccccc1-c1nc2c(C(=O)Nc3ccc4c(c3)CNC4)cc(F)cc2[nH]1 | 2.2 |
| NCc1cccc(-c2csc3cc(C(=O)Nc4ccc5c(c4)CNC5)ccc23)c1 | 29.8 |
| O=C(Nc1ccc2c(c1)CNC2)c1cc(F)cc2[nH]c(-c3ccc(F)cc3)nc12 | 2.96 |
| Cn1c(=O)[nH]c2c(C(=O)Nc3ccc4c(c3)CNC4)cc(Br)cc21 | > 99.5 |
| OCC#C[C@H](Nc1ccc2c(c1)CNC2)c1cc(Cl)cc2[nH]ncc12 | 26.2 |

— ChEMBL document CHEMBL5604065, “ASAP - DENV-3 NS2B-NS3 protease fluorescence dose response” (2024)
